Measured values published in patent US12252488B2 (Nimbus Saturn, Inc., priority 2021, dated 2025).

target: T1, HPK1 (Homo sapiens, UniProt Q92918); assay: HPK1 biochemical enzyme assay (microfluidic mobility shift assay); conditions: 1000 uM (1 mM) ATP; Caliper mobility shift; 1.5 nM HPK1; 30 min preincubation; read-out: HPK1 1000UMATP caliper IC50
T1 construct: purchased Invitrogen
Summary of the method: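 Microfluidic mobility-shift readout with 1.5 nM HPK1 in pH 7.4 buffer; compounds (ten-point curves, top 3 μM final) preincubated 30 min with enzyme/substrate. Reaction started with 1 mM ATP and 1 μM substrate plus 5 mM MgCl2, run 60 min at RT. IC50 values binned into activity classes.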

T1 sequence (Q92918 whole entry): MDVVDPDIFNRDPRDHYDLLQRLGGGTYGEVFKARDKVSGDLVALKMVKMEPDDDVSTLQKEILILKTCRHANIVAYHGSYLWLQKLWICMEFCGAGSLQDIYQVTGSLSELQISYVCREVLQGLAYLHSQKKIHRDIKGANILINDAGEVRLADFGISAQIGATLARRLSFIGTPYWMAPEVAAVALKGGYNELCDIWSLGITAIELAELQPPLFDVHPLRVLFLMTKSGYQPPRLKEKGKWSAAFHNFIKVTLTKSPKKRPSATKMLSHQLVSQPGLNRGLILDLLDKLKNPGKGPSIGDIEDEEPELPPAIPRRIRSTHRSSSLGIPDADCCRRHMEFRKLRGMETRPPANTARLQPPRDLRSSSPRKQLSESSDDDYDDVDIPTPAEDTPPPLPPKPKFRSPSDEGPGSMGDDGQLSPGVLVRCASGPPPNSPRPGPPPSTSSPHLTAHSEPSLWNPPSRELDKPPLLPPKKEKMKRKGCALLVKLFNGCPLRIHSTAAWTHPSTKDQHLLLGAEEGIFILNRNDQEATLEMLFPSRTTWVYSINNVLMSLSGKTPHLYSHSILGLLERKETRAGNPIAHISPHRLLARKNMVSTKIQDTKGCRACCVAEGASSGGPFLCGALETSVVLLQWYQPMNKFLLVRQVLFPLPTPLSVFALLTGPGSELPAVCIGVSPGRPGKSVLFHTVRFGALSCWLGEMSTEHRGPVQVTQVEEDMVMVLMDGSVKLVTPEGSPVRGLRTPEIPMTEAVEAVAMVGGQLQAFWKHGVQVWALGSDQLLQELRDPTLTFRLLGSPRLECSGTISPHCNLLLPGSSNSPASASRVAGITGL

| Compound | IC50 [nM] |
| --- | --- |
| O=c1[nH]ccc2nc(-c3ccc(CN4CCCCC4)cc3F)cc(Nc3ccc(N4CCC(O)CC4)cn3)c12 [I-127] | 100 to 1000 |
| CC(C)c1cc(Nc2ccc(N3CCC(O)CC3)cn2)c2c(=O)[nH]ccc2n1 [I-9, 4-[[5-(4-hydroxy-1-piperidyl)-2-pyridyl]amino]-2-isopropyl-6H-1,6-naphthyridin-5-one] | 100 to 1000 |
| CC(O)(c1ccc(F)c(-c2cc(Nc3ccc(N4CCC(O)CC4)cn3)c3c(=O)[nH]ccc3n2)c1)C(F)(F)F (centres unmarked) [I-123, 2-[2-fluoro-5-(2,2,2-trifluoro-1-hydroxy-1-methyl-ethyl)phenyl]-4-[[5-(4-hydroxy-1-piperidyl)-2-pyridyl]amino]-6H-1,6-naphthyridin-5-one] | ≤ 100 |
| CNCc1ccc(-c2cc(Nc3ccc(N4CCC(O)CC4)cn3)c3c(=O)[nH]ccc3n2)c(F)c1 [I-218, 2-[2-fluoro-4-(methyl-amino-methyl)phenyl]-4-[[5-(4-hydroxy-1-piperidyl)-2-pyridyl]amino]-6H-naphthyridin-5-one] | ≤ 100 |
| O=C(Nc1ccc(-c2cc(Nc3ccc(N4CCOCC4)cn3)c3c(=O)[nH]ccc3n2)c(F)c1)C1CCCCC1 [I-159, N-[3-fluoro-4-[4-[(5-morpholino-2-pyridyl)amino]-5-oxo-6H-1,6-naphthyridin-2-yl]phenyl] cyclohexane carboxamide] | ≤ 100 |
| COc1cc(-c2cc(Nc3ccc(C#N)cn3)c3c(=O)[nH]ccc3n2)c(F)cc1C(=O)N1CCCCC1 [I-242, 6-[[2-[2-fluoro-5-methoxy-4-(piperidine-1-carbonyl)phenyl]-5-oxo-6H-1,6-naphthyridin-4-yl]amino] pyridine-3-carbonitrile] | 100 to 1000 |
| CCC1(C(=O)Nc2ccc(-c3cc(Nc4ccc(N5CCNCC5)cn4)c4c(=O)[nH]ccc4n3)c(F)c2)CCC1 [I-240, 1-ethyl-N-[3-fluoro-4-[5-oxo-4-[(5-piperazin-1-yl-2-pyridyl)amino]-6H-1,6-naphthyridin-2-yl]phenyl] cyclobutane carboxamide] | 100 to 1000 |
| CNCc1ccc(F)c(-c2cc(Nc3ccc(N4CCC(O)CC4)cn3)c3c(=O)[nH]ccc3n2)c1 [I-217, 2-[2-fluoro-5-(methyl-amino-methyl)phenyl]-4-[[5-(4-hydroxy-1-piperidyl)-2-pyridyl]amino]-6H-1,6-naphthyridin-5-one] | 100 to 1000 |
| CC(C)c1cc(Nc2ccc(N3CCN(C)CC3)cn2)c2c(=O)[nH]ccc2n1 [I-57, 2-isopropyl-4-[[5-(4-methyl-piperazin-1-yl)-2-pyridyl]amino]-6H-1,6-naphthyridin-5-one] | ≤ 100 |
| O=c1[nH]ccc2nc(-c3cccc(CN4CCCCC4)c3F)cc(Nc3ccc(N4CCC(O)CC4)cn3)c12 [I-183, 2-[2-fluoro-3-(1-piperidyl-methyl)phenyl]-4-[[5-(4-hydroxy-1-piperidyl)-2-pyridyl]amino]-6H-1,6-naphthyridin-5-one] | ≤ 100 |
| O=C(Nc1ccc(-c2cc(Nc3ccc(N4CCC(O)CC4)cn3)c3c(=O)[nH]ccc3n2)c(F)c1)[C@@H]1C[C@H]2CC[C@@H]1C2 (racemic) [I-266, (1R,2R,4S)-N-[3-fluoro-4-[4-[[5-(4-hydroxy-1-piperidyl)-2-pyridyl]amino]-5-oxo-6H-1,6-naphthyridin-2-yl]phenyl] norbornane-2-carboxamide] | ≤ 100 |
| O=c1[nH]ccc2nc(-c3ccc4c(c3F)CCC4O)cc(Nc3ccc(N4CCC(O)CC4)cn3)c12 (centres unmarked) [I-203, 2-(4-fluoro-1-hydroxy-indan-5-yl)-4-[[5-(4-hydroxy-1-piperidyl)-2-pyridyl]amino]-6H-1,6-naphthyridin-5-one] | ≤ 100 |
| CCNC(=O)c1ccc(Nc2cc(C(C)C)nc3cc[nH]c(=O)c23)cc1 [I-29, N-ethyl-4-[(2-isopropyl-5-oxo-6H-1,6-naphthyridin-4-yl)amino] benzamide] | 100 to 1000 |
| CNC1CCCc2c1ccc(F)c2-c1cc(Nc2ccc(N3CCC(O)CC3)cn2)c2c(=O)[nH]ccc2n1 (centres unmarked) [I-224, 2-[6-fluoro-1-(methyl-amino)tetralin-5-yl]-4-[[5-(4-hydroxy-1-piperidyl)-2-pyridyl]amino]-6H-1,6-naphthyridin-5-one] | 100 to 1000 |
| O=C(Nc1ccc(-c2cc(Nc3ccc(N4CCC(O)CC4)cn3)c3c(=O)[nH]ccc3n2)c(F)c1)C1CCCC1 [I-154, N-[3-fluoro-4-[4-[[5-(4-hydroxy-1-piperidyl)-2-pyridyl]amino]-5-oxo-6H-1,6-naphthyridin-2-yl]phenyl] cyclo-pentane carboxamide] | 100 to 1000 |
| Cc1cc(F)c(-c2cc(Nc3ccc(N4CCC(O)CC4)cn3)c3c(=O)[nH]ccc3n2)cc1C [I-86, 2-(2-fluoro-4,5-dimethyl-phenyl)-4-[[5-(4-hydroxy-1-piperidyl)-2-pyridyl]amino]-6H-1,6-naphthyridin-5-one] | 100 to 1000 |
| O=C(Nc1ccc(-c2cc(Nc3ccc(N4CC(F)(F)C4)cn3)c3c(=O)[nH]ccc3n2)c(F)c1)C1CCCCC1 [I-201, N-[4-[4-[[5-(3,3-difluoro-azetidin-1-yl)-2-pyridyl]amino]-5-oxo-6H-1,6-naphthyridin-2-yl]-3-fluoro-phenyl] cyclohexane-carboxamide] | ≤ 100 |
| CN(C)C1CCc2c1ccc(-c1cc(Nc3ccc(N4CCC(O)CC4)cn3)c3c(=O)[nH]ccc3n1)c2F (centres unmarked) [I-237, 2-[1-(dimethyl-amino)-4-fluoro-indan-5-yl]-4-[[5-(4-hydroxy-1-piperidyl)-2-pyridyl]amino]-6H-1,6-naphthyridin-5-one] | 100 to 1000 |
| CNC(=O)c1ccc(F)c(-c2cc(Nc3ccc(N4CCC(O)CC4)cn3)c3c(=O)[nH]ccc3n2)c1 [I-85, 4-fluoro-3-[4-[[5-(4-hydroxy-1-piperidyl)-2-pyridyl]amino]-5-oxo-6H-1,6-naphthyridin-2-yl]-N-methyl-benzamide] | 100 to 1000 |
| CNC1CCc2cc(F)c(-c3cc(Nc4ccc(N5CCC(O)CC5)cn4)c4c(=O)[nH]ccc4n3)cc21 (centres unmarked) [I-200, 2-[6-fluoro-3-(methyl-amino)indan-5-yl]-4-[[5-(4-hydroxy-1-piperidyl)-2-pyridyl]amino]-6H-1,6-naphthyridin-5-one] | ≤ 100 |
| CN1CCN(Cc2ccc(-c3cc(Nc4ccc(N5CCC(O)CC5)cn4)c4c(=O)[nH]ccc4n3)c(F)c2)CC1 [I-180, 2-[2-fluoro-4-[(4-methyl-piperazin-1-yl)methyl]phenyl]-4-[[5-(4-hydroxy-1-piperidyl)-2-pyridyl]amino]-6H-1,6-naphthyridin-5-one] | ≤ 100 |
| COCCOC1CN(c2ccc(Nc3cc(-c4ccc(NC(=O)C5CCCCC5)cc4F)nc4cc[nH]c(=O)c34)nc2)C1 [I-189, N-[3-fluoro-4-[4-[[5-[3-(2-methoxy-ethoxy)azetidin-1-yl]-2-pyridyl]amino]-5-oxo-6H-1,6-naphthyridin-2-yl]phenyl] cyclohexane carboxamide] | 100 to 1000 |

Now from value to compound:

| IC50 [nM] | Compound |
| --- | --- |
| > 1000 | Cc1nc2cc(-c3cc(Nc4ccc(N5CCC(O)CC5)cn4)c4c(=O)[nH]ccc4n3)c(F)cc2o1 [I-182, 2-(6-fluoro-2-methyl-1,3-benzoxazol-5-yl)-4-[[5-(4-hydroxy-1-piperidyl)-2-pyridyl]amino]-6H-1,6-naphthyridin-5-one] |
| 100 to 1000 | CC(C)c1ccc(F)c(-c2cc(Nc3ccc(N4[C@H](C)COC[C@H]4C)cn3)c3c(=O)[nH]ccc3n2)c1 [I-122, 4-[[5-[(3R,5R)-3,5-dimethyl-morpholin-4-yl]-2-pyridyl]amino]-2-(2-fluoro-5-isopropyl-phenyl)-6H-1,6-naphthyridin-5-one] |
| ≤ 100 | CC(O)(c1ccc(F)c(-c2cc(Nc3ccc(N4CCC(O)CC4)cn3)c3c(=O)[nH]ccc3n2)c1)C(F)(F)F (single isomer, unassigned) [I-273, 2-(2-fluoro-5-(1,1,1-tifluoro-2-hydroxy-propan-2-yl)phenyl)-4-((5-(4-hydroxy-piperidin-1-yl)pyridin-2-yl)amino)-1,6-naphthyridin-5(6H)-one] |
| ≤ 100 | O=C(c1ccc(F)c(-c2cc(Nc3ccc(N4CCC(O)CC4)cn3)c3c(=O)[nH]ccc3n2)c1)N1CCCCC1 [I-94, 2-[2-fluoro-5-(piperidine-1-carbonyl)phenyl]-4-[[5-(4-hydroxy-1-piperidyl)-2-pyridyl]amino]-6H-1,6-naphthyridin-5-one] |
| 100 to 1000 | O=C(Nc1ccc(-c2cc(Nc3ccc(C4CC4)cn3)c3c(=O)[nH]ccc3n2)c(F)c1)C1CCCCC1 [I-212, N-[4-[4-[(5-cyclopropyl-2-pyridyl)amino]-5-oxo-6H-1,6-naphthyridin-2-yl]-3-fluoro-phenyl] cyclohexane-carboxamide] |
| ≤ 100 | Cc1cc(-c2cc(Nc3ccc(N4CCC(O)CC4)cn3)c3c(=O)[nH]ccc3n2)c(F)cc1C(=O)N1CCCCC1 [I-114, 2-[2-fluoro-5-methyl-4-(piperidine-1-carbonyl)phenyl]-4-[[5-(4-hydroxy-1-piperidyl)-2-pyridyl]amino]-6H-1,6-naphthyridin-5-one] |
| ≤ 100 | Cc1c[nH]nc1-c1cc(Nc2ccc(N3CCC(O)CC3)cn2)c2c(=O)[nH]ccc2n1 [I-283, 4-[[5-(4-hydroxy-1-piperidyl)-2-pyridyl]amino]-2-(4-methyl-1H-pyrazol-3-yl)-6H-1,6-naphthyridin-5-one] |
| ≤ 100 | CCNC(=O)c1ccc(Nc2cc(-c3c(F)cccc3F)nc3cc[nH]c(=O)c23)cc1 [I-4, 4-[[2-(2,6-difluoro-phenyl)-5-oxo-6H-1,6-naphthyridin-4-yl]amino]-N-ethyl-benzamide] |
| 100 to 1000 | CC1(Cc2cc(Nc3ccc(N4CCC(O)CC4)cn3)c3c(=O)[nH]ccc3n2)COC1 [I-54, 4-[[5-(4-hydroxy-1-piperidyl)-2-pyridyl]amino]-2-[(3-methyl-oxetan-3-yl)methyl]-6H-1,6-naphthyridin-5-one] |
| 100 to 1000 | CN1CCN(c2ccc(Nc3cc(-c4ccc(C(=O)N5CC6CCC5CC6)cc4F)nc4cc[nH]c(=O)c34)nc2)CC1 [I-278, 2-[4-(3-azabicyclo [2.2.2]octane-3-carbonyl)-2-fluoro-phenyl]-4-[[5-(4-methyl-piperazin-1-yl)-2-pyridyl]amino]-6H-1,6-naphthyridin 5-one] |
